The text below walks through data of patent US4343943A, “Cephalosporin analogs” (Kyowa Hakko Kogyo Co., Ltd., priority 1978, dated 1982).

Assay type in all cases: cell-based
Experiment [1] deals with Escherichia coli GN 2411-5. Nature of the experiment: Antibacterial activity, Heart Infusion Agar Dilution Method (pH 7.2). The conditions noted are these: GN2411. The procedure: (§1) Antibacterial activities of the compounds obtained in Examples 6 and 8 are measured according to the Heart Infusion Agar Dilution Method (pH 7.2). Cefazolin is used as a control.
(In agar dilution the substance is mixed into plates at graded concentrations.)

Experiment [2] relates to Escherichia coli Juhl. The description is as above. How it is done:
as §1

Experiment [3] deals with Escherichia coli NIHJC-2. The experiment is described as above. The procedure: as §1
The subject of experiment [4] is Klebsiella pneumoniae 8045. The description is as above. How it is done:
as §1

Experiment [5] deals with Klebsiella pneumoniae Y-60. The experiment is described as above. The conditions noted are these: Y60. How it is done: as §1
Experiment [6] relates to Proteus mirabilis 1287. Described as above. How it is done: as §1
The test system of experiment [7] is Proteus morganii KY4298. The experiment is described as above. The conditions noted are these: Morganella morganii. The procedure: as §1
Experiment [8] has as its system Proteus rettgeri KY4289. The experiment is described as above. The conditions noted are these: Providencia rettgeri. The procedure: as §1
Experiment [9] relates to Proteus vulgaris 6897. The description is as above. How it is done: as §1
The subject of experiment [10] is Pseudomonas aeruginosa 145. Described as above. How it is done:
as §1

Experiment [11] relates to Pseudomonas aeruginosa No. 1. Described as above. How it is done: as §1
The test system of experiment [12] is Pseudomonas putida F264. The description is as above. How it is done: as §1
The subject of experiment [13] is Serratia marcescens T-26. The description is as above. The conditions noted are these: T26. How it is done: as §1
In experiment [14] the test system is Serratia marcescens T-55. The experiment is described as above. Conditions: T55. The procedure:
as §1

Experiment [15] deals with Staphylococcus aureus 209-P. The description is as above. The procedure: as §1
The test system of experiment [16] is Staphylococcus aureus Smith. The description is as above. How it is done:
as §1

Experiment [17] concerns Staphylococcus epidermidis. Described as above. How it is done:
as §1

In experiment [18] the test system is Bacillus subtilis KY4273. The experiment in a line: Antibacterial activity, Heart Infusion Agar Dilution Method (pH 7.0). The procedure:
(§2) Antibacterial activities of the product obtained in this Example are measured according to the Heart Infusion Agar Dilution Method (pH 7.0).

The subject of experiment [19] is Erwinia aroides KY3241. Described as above. The procedure: as §2
For experiment [20], the system named is Escherichia coli KY4271. Described as above. The procedure: as §2
Experiment [21] has as its system Klebsiella pneumonia KY4275. Described as above. Conditions: Klebsiella pneumoniae. The procedure: as §2
The test system of experiment [22] is Proteus vulgaris KY4277. Described as above. The procedure:
as §2

Experiment [23] concerns Salmonella typhosa KY4278. The description is as above. The conditions noted are these: Salmonella enterica. How it is done:
as §2

Experiment [24] concerns Shigella sonnei KY4281. Described as above. The procedure:
as §2

Experiment [25] concerns Staphylococcus aureus KY4279. The experiment is described as above. The procedure: as §2
For experiment [26], the system named is Vibrio percolans KY4174. Described as above. The conditions noted are these: Comamonas terrigena. The procedure:
as §2

The mark [27] stands for this setting: Escherichia coli Juhl, agar dilution, read-out: MIC.
The mark [28] stands for this setting: NIHJC2, Escherichia coli NIHJC-2, agar dilution, pH 7.2, read-out: MIC.

Converted amounts (≈) assume the structure as drawn. Read-outs that look alike come from different tables or passages of the source.

For orientation: MIC means the lowest concentration that inhibits growth of the organism.

For the molecule `CO/N=C(/C(=O)N[C@@H]1C(=O)N2C(C(=O)O)=CC=C[C@H]12)c1csc(N)n1` (relative stereo) [Example 6, (±)-cis-7-[2-(2-amino-4-thiazolyl)-2-anti-methoxyiminoacetamido]-1-azabicyclo[4,2,0]oct-2,4-diene-8-on-2-carboxylic acid], the MIC in experiment [1] was at least 50 µg/mL; in [2] (setting [27]) it was at least 50 µg/mL; in experiment [3] (setting [28]), at least 50 µg/mL; in [4], 50 µg/mL (≈ 138 µM); in experiment [5], at least 50 µg/mL; in experiment [6], at least 50 µg/mL. The MIC in experiment [7], in [8], in [9], in experiment [10], in experiment [11] and in [12] was at least 50 µg/mL each time. The MIC in experiment [13], in [14], in experiment [15], in experiment [16] and in experiment [17] was at least 50 µg/mL throughout.
For `CO/N=C(\C(=O)N[C@@H]1C(=O)N2C(C(=O)O)=CC=C[C@H]12)c1csc(N)n1` (relative stereo) [Example 8, (±)-cis-7-[2-(2-amino-4-thiazolyl)-2-syn-methoxyiminoacetamido]-1-azabicyclo[4,2,0]oct-2,4-diene-8-on-2-carboxylic acid], the minimal inhibitory concentration (MIC) in experiment [1] is 25 µg/mL (≈ 68.8 µM); in experiment [2] (setting [27]), 50 µg/mL (≈ 138 µM); in experiment [3] (setting [28]) it was 25 µg/mL (≈ 68.8 µM); in [4], 6.25 µg/mL (≈ 17.2 µM); in experiment [5], at least 50 µg/mL; in experiment [6], 6.25 µg/mL (≈ 17.2 µM). The MIC was 12.5 µg/mL (≈ 34.4 µM) in experiment [7]; 6.25 µg/mL (≈ 17.2 µM) in experiment [8]; 6.25 µg/mL (≈ 17.2 µM) in experiment [9]; at least 50 µg/mL in experiment [10]; at least 50 µg/mL in [11]; 12.5 µg/mL (≈ 34.4 µM) in experiment [12]. Besides, the MIC in [13] was at least 50 µg/mL; in experiment [14], 50 µg/mL (≈ 138 µM); in experiment [15] it was at least 50 µg/mL; in experiment [16], at least 50 µg/mL; in experiment [17], at least 50 µg/mL.
As to `Cc1nnc(SCC2=C(C(=O)O)N3C(=O)[C@@H](NC(=O)Cn4cnnn4)[C@H]3SC2)s1` [Cefazolin, reference compound], the MIC was 1.56 µg/mL (≈ 3.43 µM) in experiment [2] (Escherichia coli); 1.56 µg/mL (≈ 3.43 µM) in [3] (Escherichia coli, NIHJC2, pH 7.2); 0.78 µg/mL (≈ 1.72 µM) in experiment [4]; 3.12 µg/mL (≈ 6.86 µM) in [5]; 12.5 µg/mL (≈ 27.5 µM) in [6]; over 100 µg/mL in [7]. Besides, the MIC was 25 µg/mL (≈ 55 µM) in experiment [8]; 12.5 µg/mL (≈ 27.5 µM) in experiment [9]; over 100 µg/mL in experiment [10]; over 100 µg/mL in [12]; over 100 µg/mL in experiment [13]; 50 µg/mL (≈ 110 µM) in experiment [14]. In addition, the MIC in [15] was under 0.05 µg/mL; in experiment [16] it was 0.4 µg/mL (≈ 0.88 µM); in experiment [17], 0.78 µg/mL (≈ 1.72 µM).
As for `O=C(Cc1cccs1)NC1C(=O)N2C(C(=O)O)=CC=CC12` (stereo not drawn) [Example 10, (±)-cis-7-[2-(thiophene-2-yl)acetylamino]-1-azabicyclo[4,2,0]oct-2,4-diene-8-on-2-carboxylic acid], the MIC in [18] is 55.6 µg/mL (≈ 183 µM); in experiment [19], 13.9 µg/mL (≈ 45.7 µM); in [20], over 55.6 µg/mL; in experiment [21] it was 27.8 µg/mL (≈ 91.3 µM); in experiment [22], 27.8 µg/mL (≈ 91.3 µM); in experiment [23], 13.9 µg/mL (≈ 45.7 µM). For the same molecule, the MIC in [24] is over 55.6 µg/mL; in experiment [25], 27.8 µg/mL (≈ 91.3 µM); in experiment [26] it was 55.6 µg/mL (≈ 183 µM).
